Like-named read-outs stand apart in the source and are kept apart here. Where a SMILES comes first, the peptide text is derived from it. [ ]: non-standard residue; d: D form. Aib = CC(C)(N)C(=O)O

For one assay, the target named is human GLP-1 receptor (Homo sapiens, UniProt P43220). Nature of the assay: Functional GLP-1 receptor assay, in vitro potency (CRE luciferase; whole cells). Type of assay: cell-based.
Assay [1] has as its system Mouse monocyte/macrophage cell line, RAW 264.7. Nature of the assay: Cholesterol efflux assay (3H-cholesterol, macrophage cell line). Type of assay: cell-based. The following applies: RAW 264.7, 4 hrs incubation, 0.1% human serum albumin; for 4 h Cholesterol Efflux Emax: ABCA1-mediated efflux.
Setting [2] is: BHK cells expressing human GLP-1 receptor, 0% HSA, read-out: GLP1R CRE luc 0% HSA EC50 Mean Value.
Setting [3] is: GLP1R CRE luc 1% HSA EC50 Mean Value, BHK cells expressing human GLP-1 receptor, 1% HSA.

Chain of human GLP-1 receptor (P43220 24-463): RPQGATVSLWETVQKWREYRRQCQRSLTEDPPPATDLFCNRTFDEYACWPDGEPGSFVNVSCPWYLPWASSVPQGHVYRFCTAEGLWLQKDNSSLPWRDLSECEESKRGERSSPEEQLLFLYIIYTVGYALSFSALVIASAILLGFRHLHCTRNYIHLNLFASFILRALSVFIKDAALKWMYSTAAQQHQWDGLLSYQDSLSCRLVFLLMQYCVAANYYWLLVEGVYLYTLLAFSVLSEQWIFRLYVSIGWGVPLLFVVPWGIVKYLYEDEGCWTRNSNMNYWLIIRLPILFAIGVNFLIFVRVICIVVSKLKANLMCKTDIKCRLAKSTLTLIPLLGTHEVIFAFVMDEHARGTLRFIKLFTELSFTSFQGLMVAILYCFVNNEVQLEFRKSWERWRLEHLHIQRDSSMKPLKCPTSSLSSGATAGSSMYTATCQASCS

For the compound “H-HAEGTFTSDVSSYLEGQAAKEFIAWLVEKVKEFLDK-OH [Compound 129, [Glu34,Lys35,Val36,Lys37]-GLP-1-(7-37)-peptidyl-Glu-Phe-Leu-Asp-Lys]”, the half-maximal effective concentration (EC50) was determined as 0.045 nM at human GLP-1 receptor (setting [2]) and 0.012 nM on human GLP-1 receptor (setting [3]). Also, the “4 h Cholesterol Efflux Emax” value in assay [1] worked out at 111%.
On to `CC[C@H](C)[C@H](NC(=O)[C@H](Cc1ccccc1)NC(=O)[C@H](CCC(=O)O)NC(=O)[C@H](CCCNC(=N)N)NC(=O)[C@@H](NC(=O)[C@H](C)NC(=O)[C@H](CCC(=O)O)NC(=O)CNC(=O)[C@H](CCC(=O)O)NC(=O)[C@H](CC(C)C)NC(=O)[C@H](Cc1ccc(O)cc1)NC(=O)[C@H](CO)NC(=O)[C@H](CO)NC(=O)[C@@H](NC(=O)[C@H](CC(=O)O)NC(=O)[C@H](CO)NC(=O)[C@@H](NC(=O)[C@H](Cc1ccccc1)NC(=O)[C@@H](NC(=O)CNC(=O)[C@H](CCC(=O)O)NC(=O)C(C)(C)NC(=O)[C@@H](N)Cc1c[nH]cn1)[C@@H](C)O)[C@@H](C)O)C(C)C)C(C)C)C(=O)N[C@@H](C)C(=O)N[C@@H](Cc1c[nH]c2ccccc12)C(=O)N[C@@H](CC(C)C)C(=O)N[C@H](C(=O)N[C@@H](CCC(=O)O)C(=O)N[C@@H](CCCNC(=N)N)C(=O)NC(C)(C)C(=O)N[C@@H](CCCNC(=N)N)C(=O)N[C@@H](CCC(=O)O)C(=O)N[C@@H](Cc1ccccc1)C(=O)N[C@@H](CC(C)C)C(N)=O)C(C)C` [Compound 43] (H-H[Aib]EGTFTSDVSSYLEGEAVREFIAWLVER[Aib]REFL-NH2), for which the EC50 on human GLP-1 receptor (setting [2]) turned out to be 0.086 nM; on human GLP-1 receptor (setting [3]), 0.041 nM. Moreover, the “4 h Cholesterol Efflux Emax” value in assay [1] came to 82%.
Regarding “H-HAEGTFTSDVSSYLEGQAAKEFIAWLVEKVGEFLEK-OH [Compound 128]”, the EC50 turned out to be 0.041 nM at human GLP-1 receptor (setting [2]) and 0.013 nM at human GLP-1 receptor (setting [3]). Further, in assay [1], the “4 h Cholesterol Efflux Emax” value amounted to 112%.
Turning to `CC[C@H](C)[C@H](NC(=O)[C@H](Cc1ccccc1)NC(=O)[C@H](CCC(=O)O)NC(=O)[C@H](CCCNC(=N)N)NC(=O)[C@@H](NC(=O)[C@H](C)NC(=O)[C@H](CCC(=O)O)NC(=O)[C@H](CCC(=O)O)NC(=O)[C@H](CCC(=O)O)NC(=O)[C@H](CCSC)NC(=O)[C@H](CCC(N)=O)NC(=O)[C@H](CCCCN)NC(=O)[C@H](CO)NC(=O)[C@H](CC(C)C)NC(=O)[C@H](CC(=O)O)NC(=O)[C@H](CO)NC(=O)[C@@H](NC(=O)[C@H](Cc1ccccc1)NC(=O)[C@@H](NC(=O)CNC(=O)[C@H](CCC(=O)O)NC(=O)C(C)(C)NC(=O)[C@@H](N)Cc1c[nH]cn1)[C@@H](C)O)[C@@H](C)O)C(C)C)C(=O)N[C@@H](CCC(=O)O)C(=O)N[C@@H](Cc1c[nH]c2ccccc12)C(=O)N[C@@H](CC(C)C)C(=O)N[C@@H](CCCCN)C(=O)N[C@@H](CC(N)=O)C(=O)N[C@@H](CCCCN)C(=O)NC(C)(C)C(=O)N[C@@H](CC(C)C)C(=O)N[C@@H](CCC(=O)O)C(=O)N[C@@H](Cc1ccccc1)C(=O)N[C@@H](CC(C)C)C(=O)N[C@@H](CCC(=O)O)C(=O)N1CCC[C@H]1C(=O)N[C@@H](CC(C)C)C(N)=O` [Compound 39, [Aib2,Glu21,Lys29,Aib30,Leu31,Glu32,Phe33,Leu34,Glu35,Leu371-Exendin-4-(1-37)-peptide amide] (H-H[Aib]EGTFTSDLSKQMEEEAVREFIEWLKNK[Aib]LEFLEPL-NH2; N-terminus assumed), the EC50 at human GLP-1 receptor (setting [2]) stood at 0.032 nM; on human GLP-1 receptor (setting [3]) it was 0.013 nM. For the same compound, in assay [1], the “4 h Cholesterol Efflux Emax” value was determined as 113%.
`CC(C)C[C@H](NC(=O)[C@H](Cc1ccccc1)NC(=O)[C@H](CCC(=O)O)NC(=O)[C@H](CCCCN)NC(=O)C(C)(C)NC(=O)[C@H](CCCCN)NC(=O)[C@H](CCC(=O)O)NC(=O)[C@@H](NC(=O)[C@H](CC(C)C)NC(=O)[C@H](Cc1c[nH]c2ccccc12)NC(=O)[C@H](C)NC(=O)[C@@H](NC(=O)[C@H](Cc1ccccc1)NC(=O)[C@H](CCC(=O)O)NC(=O)[C@H](CCCCN)NC(=O)[C@@H](NC(=O)[C@H](C)NC(=O)[C@H](CCC(=O)O)NC(=O)CNC(=O)[C@H](CCC(=O)O)NC(=O)[C@H](CC(C)C)NC(=O)[C@H](Cc1ccc(O)cc1)NC(=O)[C@H](CO)NC(=O)[C@H](CO)NC(=O)[C@@H](NC(=O)[C@H](CC(=O)O)NC(=O)[C@H](CO)NC(=O)[C@@H](NC(=O)[C@H](Cc1ccccc1)NC(=O)[C@@H](NC(=O)CNC(=O)[C@H](CCC(=O)O)NC(=O)C(C)(C)NC(=O)[C@@H](N)Cc1c[nH]cn1)[C@@H](C)O)[C@@H](C)O)C(C)C)C(C)C)C(C)C)C(C)C)C(N)=O` [Compound 82, [Aib8,Glu23,Val25,Val29,Glu34,Lys35,Aib36,Lys37]-GLP-1-(7-37)-peptidyl-Glu-Phe-Leu amide] (H-H[Aib]EGTFTSDVSSYLEGEAVKEFVAWLVEK[Aib]KEFL-NH2; N-terminus assumed): the half-maximal effective concentration (EC50) on human GLP-1 receptor (GLP1R CRE luc 0% HSA EC50 Mean Value) turned out to be 0.111 nM; on human GLP-1 receptor (GLP1R CRE luc 1% HSA EC50 Mean Value) it was 0.036 nM; in assay [1] (read-out: 4 h Cholesterol Efflux EC50, ABCA1-mediated efflux (CPT-cAMP induced minus non-induced)), 690 nM. Besides, the “4 h Cholesterol Efflux Emax” value in assay [1] worked out at 120%.
Take `CC[C@H](C)[C@H](NC(=O)[C@H](Cc1ccccc1)NC(=O)[C@H](CCC(=O)O)NC(=O)[C@H](CCCNC(=N)N)NC(=O)[C@@H](NC(=O)[C@H](C)NC(=O)[C@H](CCC(=O)O)NC(=O)[C@H](CCC(=O)O)NC(=O)[C@H](CCC(=O)O)NC(=O)[C@H](CCSC)NC(=O)[C@H](CCC(N)=O)NC(=O)[C@H](CCCCN)NC(=O)[C@H](CO)NC(=O)[C@H](CC(C)C)NC(=O)[C@H](CC(=O)O)NC(=O)[C@H](CO)NC(=O)[C@@H](NC(=O)[C@H](Cc1ccccc1)NC(=O)[C@@H](NC(=O)CNC(=O)[C@H](CCC(=O)O)NC(=O)C(C)(C)NC(=O)[C@@H](N)Cc1c[nH]cn1)[C@@H](C)O)[C@@H](C)O)C(C)C)C(=O)N[C@@H](CCC(=O)O)C(=O)N[C@@H](Cc1c[nH]c2ccccc12)C(=O)N[C@@H](CC(C)C)C(=O)N[C@@H](CCCCN)C(=O)N[C@@H](CC(N)=O)C(=O)N[C@@H](CCCCN)C(=O)NC(C)(C)C(=O)N[C@@H](CC(C)C)C(=O)N[C@@H](CCC(=O)O)C(=O)N[C@@H](Cc1ccccc1)C(=O)N[C@@H](CC(C)C)C(=O)N[C@@H](CCC(=O)O)C(=O)N[C@@H](CC(C)C)C(=O)N1CCC[C@H]1C(N)=O` [Compound 40, [Aib2,Glu21,Lys29,Aib30,Leu31,Glu32,Phe33,Leu34,Glu35,Leu361-Exendin-4-(1-37)-peptide amide] (H-H[Aib]EGTFTSDLSKQMEEEAVREFIEWLKNK[Aib]LEFLELP-NH2; N-terminus assumed): the EC50 at human GLP-1 receptor (setting [2]) came to 0.023 nM; on human GLP-1 receptor (setting [3]), 0.01 nM. In addition, the “4 h Cholesterol Efflux Emax” value in assay [1] was found to be 91%.
For `CC(C)C[C@H](NC(=O)[C@H](Cc1ccccc1)NC(=O)[C@H](CCC(=O)O)NC(=O)[C@H](CCCCN)NC(=O)C(C)(C)NC(=O)[C@H](CCCCN)NC(=O)[C@H](CCC(=O)O)NC(=O)[C@H](CC(C)C)NC(=O)[C@H](CC(C)C)NC(=O)[C@H](Cc1c[nH]c2ccccc12)NC(=O)[C@H](CCC(N)=O)NC(=O)[C@@H](NC(=O)[C@H](Cc1ccccc1)NC(=O)[C@H](CCC(=O)O)NC(=O)[C@H](CCCNC(=N)N)NC(=O)[C@H](C)NC(=O)[C@H](CCCNC(=N)N)NC(=O)[C@H](CCCCN)NC(=O)CNC(=O)[C@H](CC(=O)O)NC(=O)[C@H](CC(C)C)NC(=O)[C@H](Cc1ccc(O)cc1)NC(=O)[C@H](CCCCN)NC(=O)[C@H](CO)NC(=O)[C@H](Cc1ccc(O)cc1)NC(=O)[C@H](CC(=O)O)NC(=O)[C@H](CO)NC(=O)[C@@H](NC(=O)[C@H](Cc1ccccc1)NC(=O)[C@@H](NC(=O)CNC(=O)[C@H](CCC(N)=O)NC(=O)C(C)(C)NC(=O)[C@@H](N)Cc1c[nH]cn1)[C@@H](C)O)[C@@H](C)O)C(C)C)C(N)=O` [Compound 25] (H-H[Aib]QGTFTSDYSKYLDGKRAREFVQWLLEK[Aib]KEFL-NH2), the EC50 on human GLP-1 receptor (setting [2]) was 0.591 nM; on human GLP-1 receptor (setting [3]), 0.297 nM. In assay [1], the “4 h Cholesterol Efflux Emax” value came out at 68%.

For the origin of these results see US20150344540A1, “NOVEL GLP-1 RECEPTOR AGONISTS WITH CHOLESTEROL EFFLUX ACTIVITY” (NOVO NORDISK A/S, priority 2012, published 2015).
